Experimental data taken from the supplement of paper PMC11451515.

Tests used:
Conditions in all cases: 48 h
NOMO1 [1] = experiment: cell viability relative to DMSO control; higher = less cytotoxic
Procedure, shortened: (§1)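 Library compounds in DMSO were pin-dosed into 1536-well plates (5 μl) holding NOMO1 or SEM (500 cells/well) or P12-Ichikawa (1000 cells/well) leukemia cells, across an 11-point threefold series of 47 μM to 0.79 nM. Each cell line had been adapted for at least four passages in each medium. CellTiter-Glo One luminescence was read after 48 h at 37°C. Viability is the per-plate percentage relative to DMSO wells, with cell-free wells as background.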

P12-Ichikawa [2] = experiment: as above
Procedure, shortened: as §1

SEM cells [3] = experiment: as above
Procedure, shortened: as §1

NOMO1 [4] = experiment: AUC of viability dose-response curve (% viability x log10 dose units); higher = less sensitive
Procedure, shortened: (§2)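 Medium-adapted leukemia cells in 1536-well plates, at 500 or 1000 cells/well, were incubated for 48 h at 37°C with library compounds in DMSO at 11 threefold doses from 47 μM to 0.79 nM. CellTiter-Glo One luminescence normalised per plate to DMSO and cell-free wells was fitted with a four-parameter log-logistic model over log10 doses. Area under the curve was integrated from this fit by trapezoidal rule, with curves beyond full viability scaled and failed quality-control curves removed.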

P12-Ichikawa [5] = experiment: as above
Procedure, shortened: as §2

SEM cells [6] = experiment: as above
Procedure, shortened: as §2

CN(C)Cc1cccc(N/C(=C2\C(=O)Nc3cc(C(=O)N(C)C)ccc32)c2ccccc2)c1
cell viability [%]
Conditions	NOMO1 [1]	P12-Ichikawa [2]	SEM cells [3]
HPLM + 10% dialyzed FBS, 0.000781 µM	99.3	95.7	75.8
HPLM + 10% dialyzed FBS, 0.00234 µM	105	105	88.4
HPLM + 10% dialyzed FBS, 0.00702 µM	112	110	100
HPLM + 10% dialyzed FBS, 0.0211 µM	112	101	98.6
HPLM + 10% dialyzed FBS, 0.0632 µM	91.1	119	112
HPLM + 10% dialyzed FBS, 0.19 µM	118	114	101
HPLM + 10% dialyzed FBS, 0.569 µM	110	111	108
HPLM + 10% dialyzed FBS, 1.71 µM	97.9	115	97.2
HPLM + 10% dialyzed FBS, 5.12 µM	74.8	103	90.7
HPLM + 10% dialyzed FBS, 15.4 µM	58.2	93.2	55
HPLM + 10% dialyzed FBS, 46.1 µM	28.8	42.3	2.72
RPMI 5 mM glucose + 10% FBS, 0.000781 µM	100	90.7	92.4
RPMI 5 mM glucose + 10% FBS, 0.00234 µM	105	114	87.5
RPMI 5 mM glucose + 10% FBS, 0.00702 µM	101	108	102
RPMI 5 mM glucose + 10% FBS, 0.0211 µM	105	109	104
RPMI 5 mM glucose + 10% FBS, 0.0632 µM	103	114	109
RPMI 5 mM glucose + 10% FBS, 0.19 µM	107	111	114
RPMI 5 mM glucose + 10% FBS, 0.569 µM	95.2	113	104
RPMI 5 mM glucose + 10% FBS, 1.71 µM	92.4	106	102
RPMI 5 mM glucose + 10% FBS, 5.12 µM	84.6	96	71.2
RPMI 5 mM glucose + 10% FBS, 15.4 µM	68.5	90.3	7.07
RPMI 5 mM glucose + 10% FBS, 46.1 µM	55	65	1.12
RPMI 5 mM glucose + 10% dialyzed FBS, 0.000781 µM	95.7	100	74.2
RPMI 5 mM glucose + 10% dialyzed FBS, 0.00234 µM	88.9	111	103
RPMI 5 mM glucose + 10% dialyzed FBS, 0.00702 µM	95.9	111	96.5
RPMI 5 mM glucose + 10% dialyzed FBS, 0.0211 µM	96.4	117	108
RPMI 5 mM glucose + 10% dialyzed FBS, 0.0632 µM	107	120	103
RPMI 5 mM glucose + 10% dialyzed FBS, 0.19 µM	99.6	111	110
RPMI 5 mM glucose + 10% dialyzed FBS, 0.569 µM	112	114	111
RPMI 5 mM glucose + 10% dialyzed FBS, 1.71 µM	112	118	115
RPMI 5 mM glucose + 10% dialyzed FBS, 5.12 µM	81.2	103	85.6
RPMI 5 mM glucose + 10% dialyzed FBS, 15.4 µM	73	98.2	26.6
RPMI 5 mM glucose + 10% dialyzed FBS, 46.1 µM	61.6	64.4	1.38

AUC of viability dose-response curve
Conditions	NOMO1 [4]	P12-Ichikawa [5]	SEM cells [6]
HPLM + 10% dialyzed FBS	418	455	420
RPMI 5 mM glucose + 10% FBS	433	453	394
RPMI 5 mM glucose + 10% dialyzed FBS	444	458	411

COc1c(C)c2c(c(O)c1C/C=C(\C)CCC(=O)OCCN1CCOCC1)C(=O)OC2
cell viability [%]
Conditions	NOMO1 [1]	P12-Ichikawa [2]	SEM cells [3]
HPLM + 10% dialyzed FBS, 0.000781 µM	90.3	106	107
HPLM + 10% dialyzed FBS, 0.00234 µM	91.9	114	110
HPLM + 10% dialyzed FBS, 0.00702 µM	110	114	99.8
HPLM + 10% dialyzed FBS, 0.0211 µM	122	104	117
HPLM + 10% dialyzed FBS, 0.0632 µM	112	124	105
HPLM + 10% dialyzed FBS, 0.19 µM	99.8	106	121
HPLM + 10% dialyzed FBS, 0.569 µM	107	109	92.8
HPLM + 10% dialyzed FBS, 1.71 µM	86.3	109	106
HPLM + 10% dialyzed FBS, 5.12 µM	60.5	58.2	64.6
HPLM + 10% dialyzed FBS, 15.4 µM	43.9	40.1	39.2
HPLM + 10% dialyzed FBS, 46.1 µM	31.9	35.6	26.2
RPMI 5 mM glucose + 10% FBS, 0.000781 µM	98.5	104	102
RPMI 5 mM glucose + 10% FBS, 0.00234 µM	108	105	113
RPMI 5 mM glucose + 10% FBS, 0.00702 µM	98	111	107
RPMI 5 mM glucose + 10% FBS, 0.0211 µM	92.7	109	115
RPMI 5 mM glucose + 10% FBS, 0.0632 µM	95	105	116
RPMI 5 mM glucose + 10% FBS, 0.19 µM	110	106	116
RPMI 5 mM glucose + 10% FBS, 0.569 µM	107	110	101
RPMI 5 mM glucose + 10% FBS, 1.71 µM	122	93.9	95.8
RPMI 5 mM glucose + 10% FBS, 5.12 µM	62.9	50.2	60.7
RPMI 5 mM glucose + 10% FBS, 15.4 µM	38.8	30.1	38.7
RPMI 5 mM glucose + 10% FBS, 46.1 µM	33.6	26	26
RPMI 5 mM glucose + 10% dialyzed FBS, 0.000781 µM	102	109	110
RPMI 5 mM glucose + 10% dialyzed FBS, 0.00234 µM	108	100	110
RPMI 5 mM glucose + 10% dialyzed FBS, 0.00702 µM	102	100	101
RPMI 5 mM glucose + 10% dialyzed FBS, 0.0211 µM	111	104	111
RPMI 5 mM glucose + 10% dialyzed FBS, 0.0632 µM	104	98.3	104
RPMI 5 mM glucose + 10% dialyzed FBS, 0.19 µM	115	106	117
RPMI 5 mM glucose + 10% dialyzed FBS, 0.569 µM	98.9	102	107
RPMI 5 mM glucose + 10% dialyzed FBS, 1.71 µM	89	88.3	124
RPMI 5 mM glucose + 10% dialyzed FBS, 5.12 µM	64.7	57.1	86.4
RPMI 5 mM glucose + 10% dialyzed FBS, 15.4 µM	49.5	35.4	56
RPMI 5 mM glucose + 10% dialyzed FBS, 46.1 µM	42.2	30.3	32.6

AUC of viability dose-response curve
Conditions	NOMO1 [4]	P12-Ichikawa [5]	SEM cells [6]
HPLM + 10% dialyzed FBS	402	406	405
RPMI 5 mM glucose + 10% FBS	412	393	396
RPMI 5 mM glucose + 10% dialyzed FBS	408	400	427

Cc1cc(-c2ccc(CC(=O)Nc3ccc(-c4cccnc4)cc3)cc2)ccn1
cell viability [%]
Conditions	NOMO1 [1]	P12-Ichikawa [2]	SEM cells [3]
HPLM + 10% dialyzed FBS, 0.000781 µM	–	113	115
HPLM + 10% dialyzed FBS, 0.00234 µM	–	113	112
HPLM + 10% dialyzed FBS, 0.00702 µM	–	121	123
HPLM + 10% dialyzed FBS, 0.0211 µM	–	115	118
HPLM + 10% dialyzed FBS, 0.0632 µM	–	118	118
HPLM + 10% dialyzed FBS, 0.19 µM	–	111	119
HPLM + 10% dialyzed FBS, 0.569 µM	–	112	123
HPLM + 10% dialyzed FBS, 1.71 µM	–	108	87.8
HPLM + 10% dialyzed FBS, 5.12 µM	–	97.7	80.8
HPLM + 10% dialyzed FBS, 15.4 µM	–	57.1	12.7
HPLM + 10% dialyzed FBS, 46.1 µM	–	70.2	18.4
RPMI 5 mM glucose + 10% FBS, 0.000781 µM	108	117	101
RPMI 5 mM glucose + 10% FBS, 0.00234 µM	118	119	123
RPMI 5 mM glucose + 10% FBS, 0.00702 µM	108	121	131
RPMI 5 mM glucose + 10% FBS, 0.0211 µM	111	117	133
RPMI 5 mM glucose + 10% FBS, 0.0632 µM	107	118	124
RPMI 5 mM glucose + 10% FBS, 0.19 µM	110	132	129
RPMI 5 mM glucose + 10% FBS, 0.569 µM	116	111	131
RPMI 5 mM glucose + 10% FBS, 1.71 µM	96.4	106	112
RPMI 5 mM glucose + 10% FBS, 5.12 µM	84.6	111	123
RPMI 5 mM glucose + 10% FBS, 15.4 µM	54.3	89.9	24.5
RPMI 5 mM glucose + 10% FBS, 46.1 µM	40.9	62.6	15.5
RPMI 5 mM glucose + 10% dialyzed FBS, 0.000781 µM	119	112	113
RPMI 5 mM glucose + 10% dialyzed FBS, 0.00234 µM	131	110	113
RPMI 5 mM glucose + 10% dialyzed FBS, 0.00702 µM	124	111	126
RPMI 5 mM glucose + 10% dialyzed FBS, 0.0211 µM	110	114	106
RPMI 5 mM glucose + 10% dialyzed FBS, 0.0632 µM	134	119	110
RPMI 5 mM glucose + 10% dialyzed FBS, 0.19 µM	103	108	124
RPMI 5 mM glucose + 10% dialyzed FBS, 0.569 µM	106	104	128
RPMI 5 mM glucose + 10% dialyzed FBS, 1.71 µM	110	106	112
RPMI 5 mM glucose + 10% dialyzed FBS, 5.12 µM	91.8	96.3	104
RPMI 5 mM glucose + 10% dialyzed FBS, 15.4 µM	55.8	69.1	21.7
RPMI 5 mM glucose + 10% dialyzed FBS, 46.1 µM	41.7	55.7	16

AUC of viability dose-response curve
Conditions	NOMO1 [4]	P12-Ichikawa [5]	SEM cells [6]
HPLM + 10% dialyzed FBS	380	439	392
RPMI 5 mM glucose + 10% FBS	420	447	418
RPMI 5 mM glucose + 10% dialyzed FBS	413	438	413
